Assays:
[1] = system: normal NK cells expanded with K562-aAPC; assay: percent inhibition of viability; higher = more inhibition; conditions: 72 h, IL-2 2.5 ng/mL
Description: (§1)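 Drug sensitivity and resistance testing on K562-aAPC-expanded normal NK cells: 5 concentrations (10-fold steps over a 10,000-fold range), 72 h at 37 °C, viability by CellTiter-Glo normalised to DMSO and benzethonium chloride controls; DSS from the fitted curve.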

DERL-7 (IL-2 2.5 ng/mL) [2] = assay: as above; conditions: 72 h
IMC-1 (IL-2 20 ng/mL) [3] = assay: as above; conditions: 72 h
KAI3 (IL-2 2.5 ng/mL) [4] = assay: as above; conditions: 72 h
KHYG-1 (IL-2 2.5 ng/mL) [5] = assay: as above; conditions: 72 h
NK-92 (IL-2 2.5 ng/mL) [6] = assay: as above; conditions: 72 h
NK-YS (IL-2 2.5 ng/mL) [7] = assay: as above; conditions: 72 h
NKL (IL-2 2.5 ng/mL) [8] = assay: as above; conditions: 72 h
SNK-6 (IL-2 2.5 ng/mL) [9] = assay: as above; conditions: 72 h
YT (IL-2 2.5 ng/mL) [10] = assay: as above; conditions: 72 h
[11] = system: normal primary NK cells, pool 1 (3 donors) (IL-2 2.5 ng/mL); assay: as above; conditions: 72 h
[12] = system: normal primary NK cells, pool 1 (3 donors), resting (IL-2 0 ng/mL); assay: as above; conditions: 72 h
[13] = system: normal primary NK cells, pool 2 (3 donors) (IL-2 2.5 ng/mL); assay: as above; conditions: 72 h
[14] = system: normal primary NK cells, pool 3 (3 donors) (IL-2 2.5 ng/mL); assay: as above; conditions: 72 h
[15] = system: normal NK cells expanded with K562-aAPC; assay: drug sensitivity score (DSS) (DSS units); higher = more sensitive; extreme values may be limits of the assay; conditions: 72 h; IL-2 2.5 ng/mL
Description: as §1

DERL-7 (IL-2 2.5 ng/mL) [16] = assay: as above; conditions: 72 h
IMC-1 (IL-2 20 ng/mL) [17] = assay: as above; conditions: 72 h
KAI3 (IL-2 2.5 ng/mL) [18] = assay: as above; conditions: 72 h
KHYG-1 (IL-2 2.5 ng/mL) [19] = assay: as above; conditions: 72 h
NK-92 (IL-2 2.5 ng/mL) [20] = assay: as above; conditions: 72 h
NK-YS (IL-2 2.5 ng/mL) [21] = assay: as above; conditions: 72 h
NKL (IL-2 2.5 ng/mL) [22] = assay: as above; conditions: 72 h
SNK-6 (IL-2 2.5 ng/mL) [23] = assay: as above; conditions: 72 h
YT (IL-2 2.5 ng/mL) [24] = assay: as above; conditions: 72 h
[25] = system: normal primary NK cells, pool 1 (3 donors) (IL-2 2.5 ng/mL); assay: as above; conditions: 72 h
[26] = system: normal primary NK cells, pool 1 (3 donors), resting (IL-2 0 ng/mL); assay: as above; conditions: 72 h
[27] = system: normal primary NK cells, pool 2 (3 donors) (IL-2 2.5 ng/mL); assay: as above; conditions: 72 h
[28] = system: normal primary NK cells, pool 3 (3 donors) (IL-2 2.5 ng/mL); assay: as above; conditions: 72 h

C[C@H](Nc1ncnc2nc[nH]c12)c1cc2cccc(Cl)c2c(=O)n1-c1ccccc1 [Duvelisib] (max concentration tested 500 nM)
percent inhibition of viability [%]
Conditions | 0.05 nM | 0.5 nM | 5 nM | 50 nM | 500 nM
DERL-7 (IL-2 2.5 ng/mL) [2] | -0.14 | 9.15 | 10.2 | 25.2 | 56.5
IMC-1 (IL-2 20 ng/mL) [3] | 0.88 | -0.84 | -0.96 | -0.33 | 6.98
KAI3 (IL-2 2.5 ng/mL) [4] | -4.68 | 0.86 | 7.47 | 8.25 | 24.3
KHYG-1 (IL-2 2.5 ng/mL) [5] | 1.1 | 3.56 | 6.06 | 5.02 | 18.1
NK-92 (IL-2 2.5 ng/mL) [6] | -9.06 | -4.46 | 22.4 | 26.1 | 42.3
NK-YS (IL-2 2.5 ng/mL) [7] | -2.69 | -4.82 | 0.82 | -1.23 | 13
NKL (IL-2 2.5 ng/mL) [8] | -10.5 | 7.21 | 0.54 | 24.6 | 17.3
SNK-6 (IL-2 2.5 ng/mL) [9] | -0.58 | 4.35 | 2.29 | 9.46 | 32.8
YT (IL-2 2.5 ng/mL) [10] | 0.13 | 2.78 | 3.52 | 2.82 | 12.4
[1] | -2.59 | 4.75 | 5.15 | 19.8 | 45.7
[11] | -0.52 | -4.76 | 3.49 | 6.72 | 18.7
[12] | 0.72 | -3.61 | 2.62 | -2.38 | 3.26
[13] | -6.04 | 4.46 | 6.08 | 11.3 | 26.1
[14] | -13.6 | -1.02 | -2.45 | -0.85 | 21.8

Conditions | drug sensitivity score
DERL-7 (IL-2 2.5 ng/mL) [16] | 6.16
IMC-1 (IL-2 20 ng/mL) [17] | 0
KAI3 (IL-2 2.5 ng/mL) [18] | 1.4
KHYG-1 (IL-2 2.5 ng/mL) [19] | 0.45
NK-92 (IL-2 2.5 ng/mL) [20] | 7.08
NK-YS (IL-2 2.5 ng/mL) [21] | 0.07
NKL (IL-2 2.5 ng/mL) [22] | 3.86
SNK-6 (IL-2 2.5 ng/mL) [23] | 2.8
YT (IL-2 2.5 ng/mL) [24] | 0.15
[15] | 4.43
[25] | 0.83
[26] | 0
[27] | 1.9
[28] | 0.66

COC(=O)N[C@@H](C)CNc1nccc(-c2cn(C(C)C)nc2-c2cc(Cl)cc(NS(C)(=O)=O)c2F)n1 [Encorafenib] (max concentration tested 1000 nM)
percent inhibition of viability [%]
Conditions | 0.1 nM | 1 nM | 10 nM | 100 nM | 1000 nM
DERL-7 (IL-2 2.5 ng/mL) [2] | -4.45 | 1.39 | -5.31 | -20.4 | 2.89
IMC-1 (IL-2 20 ng/mL) [3] | -3.38 | -1.85 | -0.96 | 1.07 | 11.3
KAI3 (IL-2 2.5 ng/mL) [4] | -3.35 | -4.73 | -1.44 | -5.19 | 35.6
KHYG-1 (IL-2 2.5 ng/mL) [5] | 1.4 | 3.41 | 40.8 | 96.3 | 36
NK-92 (IL-2 2.5 ng/mL) [6] | 3.73 | -5.79 | 17.9 | 6.05 | 10.7
NK-YS (IL-2 2.5 ng/mL) [7] | 0.75 | 0.97 | 2.64 | 4.64 | 15.7
NKL (IL-2 2.5 ng/mL) [8] | -6.88 | -1.53 | -12.4 | -13 | 2.6
SNK-6 (IL-2 2.5 ng/mL) [9] | -4.51 | -10 | 13.8 | 2.67 | 3.42
YT (IL-2 2.5 ng/mL) [10] | 4.02 | 1.12 | 4.21 | 0.09 | 19.3
[1] | -0.52 | -2.88 | -3.45 | 0.31 | 8.45
[11] | -4.01 | -8.97 | -7.94 | -18.4 | -8.33
[12] | 6.42 | -18.3 | -10.7 | -27.7 | 1.26
[13] | -12.3 | -6.1 | -1.97 | -5.14 | -1.61
[14] | -8.13 | -6.38 | -2.7 | -12.9 | -4.56

Conditions | drug sensitivity score
DERL-7 (IL-2 2.5 ng/mL) [16] | 0
IMC-1 (IL-2 20 ng/mL) [17] | 0.04
KAI3 (IL-2 2.5 ng/mL) [18] | 1.37
KHYG-1 (IL-2 2.5 ng/mL) [19] | 16.3
NK-92 (IL-2 2.5 ng/mL) [20] | 0.17
NK-YS (IL-2 2.5 ng/mL) [21] | 0.52
NKL (IL-2 2.5 ng/mL) [22] | 0
SNK-6 (IL-2 2.5 ng/mL) [23] | 0
YT (IL-2 2.5 ng/mL) [24] | 0.55
[15] | 0
[25] | 0
[26] | 0
[27] | 0
[28] | 0
